Experimental data: US20250296971A1, “GASTRIC INHIBITORY PEPTIDE RECEPTOR LIGANDS” (priority 2021, published 2025)
Where two headings read alike, the source gives them in different places. *1 amine or outer side, *2 acyl side, *3 side chain or, on linkers, in order; H or OH if unused. Where a SMILES comes first, the peptide text is derived from it. Bridges are numbered along the chain shown (N, C = ends). [ ]: non-standard residue; d: D form. The star is where a group is joined. X5 = NC(=O)[C@H](CCCCNC(=O)CN1CCN(CC(=O)O)CCN(CC(=O)O)CCN(CC(=O)O)CC1)NC(=O)CCC(=O)NCCCOCCOCCOCCCN*; X3 = O=C(O)CN1CCN(CC(=O)O)CCN(CC(=O)NCCCOCCOCCOCCCN*)CCN(CC(=O)O)CC1; NH(1-deoxy-D-glucityl) = OC[C@@H](O)[C@@H](O)[C@H](O)[C@@H](O)CN*; DOTA = O=C(O)CN1CCN(CC(=O)O)CCN(CC(=O)*)CCN(CC(=O)O)CC1; Trp(5-Cl) = N[C@@H](Cc1c[nH]c2ccc(Cl)cc12)C(=O)O; Pyridine(2,6-diCH2) = c1cc(C[*:1])nc(C[*:2])c1; Pro(4R-NH2) = N[C@H]1CN[C@H](C(=O)O)C1; mXylylene = c1cc(C[*:1])cc(C[*:2])c1; Glutaryl = O=C(CCCC(=O)[*:2])[*:1]; PEG6 = NCCOCCOCCOCCOCCOCCOCCC(=O)O; Hyp = O=C(O)[C@@H]1C[C@@H](O)CN1; X1 = O=C(CN1CCC(N[*:1])CC1)[*:2]; NMeL = CN[C@@H](CC(C)C)C(=O)O; Suc = O=C(CCC(=O)[*:2])[*:1]; NMeC = CN[C@@H](CS)C(=O)O; Api = NC1(C(=O)O)CCNCC1; Thp = NC1(C(=O)O)CCOCC1; Aib = CC(C)(N)C(=O)O

Target: T1, GIPR (CHO-K1-hGIPR cells) (Homo sapiens, UniProt P48546)
T1 construct: host or cells: CHO-K1
T1 sequence (P48546 22-466): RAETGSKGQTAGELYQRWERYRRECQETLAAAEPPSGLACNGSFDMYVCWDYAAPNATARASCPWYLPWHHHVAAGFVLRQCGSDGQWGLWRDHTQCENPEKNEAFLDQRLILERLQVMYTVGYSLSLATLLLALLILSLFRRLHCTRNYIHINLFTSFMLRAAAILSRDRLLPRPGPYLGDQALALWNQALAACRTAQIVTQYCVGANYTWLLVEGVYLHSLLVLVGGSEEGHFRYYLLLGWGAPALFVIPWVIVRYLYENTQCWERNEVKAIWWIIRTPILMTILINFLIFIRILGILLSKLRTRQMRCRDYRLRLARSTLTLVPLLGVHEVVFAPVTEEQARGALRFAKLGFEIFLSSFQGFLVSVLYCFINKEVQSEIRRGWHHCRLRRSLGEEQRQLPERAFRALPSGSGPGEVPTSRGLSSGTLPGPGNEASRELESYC
Assay: FACS binding assay
Details: read-out: pIC50 Category (converted)
Outline: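 Steps: detach CHO-K1-hGIPR cells (Accutase); wash in PBS/1% FCS; adjust to 500.000 cells per mL; wash ice-cold; incubate APC-streptavidin 1 μg/mL, 30 min on ice; wash twice; acquire on flow cytometer; fit MFI-concentration data with a four-parameter logistic model.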

[1] = competition with 20 nM GIP-057, 4° C. for 1 hour
[2] = competition with 20 nM GIP-057, 4° C., 1 hour

IC50 [1] [µM]	IC50 [2] [µM]	Compound
0.1 to 0.794		CC[C@H](C)[C@@H]1NC(=O)[C@H](C)NC(=O)[C@H](C)NC(=O)[C@@H](NC(=O)[C@H](CC(C)C)NC(=O)[C@H](CCC(=O)O)NC(=O)[C@@H]2CCCN2C(=O)[C@H](Cc2c[nH]c3ccccc23)NC(=O)[C@H](Cc2c[nH]c3ccccc23)NC(=O)[C@H](CC(=O)O)NC(=O)[C@H](Cc2ccc(O)cc2)NC(=O)[C@@H](N)CCSC)CSCc2cccc(c2)CSC[C@@H](C(N)=O)NC1=O [GIP-312] (H-MYDWWPELCAAIC-NH2; linker 9-13 via mXylylene)
	< 0.01	CC[C@H](C)[C@@H]1NC(=O)[C@H](CC(C)C)NC(=O)C2(CCN(C(=O)CN3CCN(CC(=O)O)CCN(CC(=O)O)CCN(CC(=O)O)CC3)CC2)NC(=O)[C@@H](NC(=O)[C@@H](CC(C)C)NC(=O)[C@H](CCC(=O)O)NC(=O)[C@@H]2C[C@@H](O)CN2C(=O)[C@H](Cc2c[nH]c3ccc(Cl)cc23)NC(=O)[C@H](Cc2c[nH]c3ccccc23)NC(=O)[C@H](CC(=O)O)NC(=O)CCC(=O)NCCCOCCOCCOCCCNC(=O)CN2CCN(CC(=O)O)CCN(CC(=O)O)CCN(CC(=O)O)CC2)CSCc2cccc(n2)CSC[C@@H](C(=O)N[C@@H](CCCCNC(=O)CN2CCN(CC(=O)O)CCN(CC(=O)O)CCN(CC(=O)O)CC2)C(N)=O)NC1=O [GIP-055, DOTA-Ttds-Asp-Trp-5Clw-Hyp-Glu-leu-[Cys(2Lut)-Apc(DOTA)-Leu-Ile-Cys]-Lys(DOTA)-NH2] ({X3-Suc}-DW[Trp(5-Cl)][Hyp]E[dL]C[Api](DOTA)LICK(DOTA)-NH2; linker 7-11 via Pyridine(2,6-diCH2))
	< 0.01	CC[C@H](C)[C@@H]1NC(=O)[C@H](CC(C)C)NC(=O)C2(CCN(C(=O)CN3CCN(CC(=O)O)CCN(CC(=O)O)CCN(CC(=O)O)CC3)CC2)NC(=O)[C@@H](NC(=O)[C@@H](CC(C)C)NC(=O)[C@H](CCC(=O)O)NC(=O)[C@@H]2C[C@@H](N)CN2C(=O)[C@H](Cc2c[nH]c3ccc(Cl)cc23)NC(=O)[C@H](Cc2c[nH]c3ccccc23)NC(=O)[C@H](CC(=O)O)NC(=O)CN2CCC(NC(=O)CCCC(=O)NC[C@H](O)[C@@H](O)[C@H](O)[C@H](O)CO)CC2)CSCc2cccc(n2)CSC[C@@H](C(=O)NC2CCN(CC(=O)N[C@H](CCC(=O)NC[C@H](O)[C@@H](O)[C@H](O)[C@H](O)CO)C(N)=O)CC2)NC1=O [GIP-013, AGLU-Glutar-APAc-Asp-Trp-5Clw-Tap-Glu-leu-[Cys(2Lut)-Apc(DOTA)-Leu-Ile-Cys]-APAc-glu(AGLU)-NH2] ({NH(1-deoxy-D-glucityl)-Glutaryl}-[X1]DW[Trp(5-Cl)][Pro(4R-NH2)]E[dL]C[Api](DOTA)LIC[X1][dE](NH(1-deoxy-D-glucityl))-NH2; linker 8-12 via Pyridine(2,6-diCH2))
	< 0.01	CC[C@H](C)[C@@H]1NC(=O)[C@H](CC(C)C)NC(=O)C2(CCOCC2)NC(=O)[C@@H](NC(=O)[C@@H](CC(C)C)NC(=O)[C@H](CCC(=O)O)NC(=O)[C@@H]2C[C@@H](N)CN2C(=O)[C@H](Cc2c[nH]c3ccc(Cl)cc23)NC(=O)[C@H](Cc2c[nH]c3ccccc23)NC(=O)[C@H](CC(=O)O)NC(=O)CCOCCOCCOCCOCCOCCOCCNC(=O)[C@@H](CCC(=O)NC[C@H](O)[C@@H](O)[C@H](O)[C@H](O)CO)NC(=O)CN2CCN(CC(=O)O)CCN(CC(=O)O)CCN(CC(=O)O)CC2)CSCc2cccc(n2)CSC[C@@H](C(=O)NC2CCN(CC(=O)N[C@H](CCC(=O)NC[C@H](O)[C@@H](O)[C@H](O)[C@H](O)CO)C(N)=O)CC2)NC1=O [GIP-019, DOTA-glu(AGLU)-PEG6-Asp-Trp-5Clw-Tap-Glu-leu-[Cys(2Lut)-Thp-Leu-Ile-Cys]-APAc-glu(AGLU)-NH2] ({DOTA}-[dE](NH(1-deoxy-D-glucityl))[PEG6]DW[Trp(5-Cl)][Pro(4R-NH2)]E[dL]C[Thp]LIC[X1][dE](NH(1-deoxy-D-glucityl))-NH2; linker 9-13 via Pyridine(2,6-diCH2))
> 1		CC[C@H](C)[C@@H]1NC(=O)[C@H](CC(C)C)NC(=O)C(C)(C)NC(=O)[C@@H](NC(=O)[C@H](CC(C)C)N(C)C(=O)[C@H](CCC(=O)O)NC(=O)[C@@H]2CCCN2C(=O)[C@H](Cc2c[nH]c3ccccc23)NC(=O)[C@H](Cc2c[nH]c3ccccc23)NC(=O)[C@H](CC(=O)O)NC(C)=O)CSCc2cccc(c2)CSC[C@@H](C(=O)NCCCOCCOCCOCCCNC(=O)CCC(=O)N[C@@H](CCCCNC(=O)CN2CCN(CC(=O)O)CCN(CC(=O)O)CCN(CC(=O)O)CC2)C(N)=O)NC1=O [GIP-290, Ac-Asp-Trp-Trp-Pro-Glu-Nml-[Cys(3MeBn)-Aib-Leu-Ile-Cys]-Ttds-Lys(DOTA)-NH2] (Ac-DWWPE[NMeL]C[Aib]LIC-X5; linker 7-11 via mXylylene)
> 1		CC[C@H](C)[C@@H]1NC(=O)[C@H](CC(C)C)NC(=O)C(C)(C)NC(=O)[C@@H](NC(=O)[C@H](CC(C)C)NC(=O)[C@H](CCC(=O)O)NC(=O)[C@@H]2CCCN2C(=O)[C@H](Cc2c[nH]c3ccccc23)NC(=O)[C@H](Cc2c[nH]c3ccccc23)NC(=O)[C@H](CC(=O)O)NC(C)=O)CSCc2cccc(c2)CSC[C@@H](C(=O)NCCCOCCOCCOCCCNC(=O)CCC(=O)N[C@@H](CCCCNC(=O)CN2CCN(CC(=O)O)CCN(CC(=O)O)CCN(CC(=O)O)CC2)C(N)=O)N(C)C1=O [GIP-292, Ac-Asp-Trp-Trp-Pro-Glu-Leu-[Cys(3MeBn)-Aib-Leu-Ile-Nmc]-Ttds-Lys(DOTA)-NH2] (Ac-DWWPELC[Aib]LI[NMeC]-X5; linker 7-11 via mXylylene)
